The test system of test [1] is rat model of adjuvant arthritis. The test is described as follows: Rat adjuvant arthritis, oral NC-2300 compared with alendronate. In kind it is in vivo. Conditions: for bone erosion in the ankle (radiological analysis): administered daily day 0 to day 35, soft X-rays of ankle joints day 36. On the procedure:
Rats were injected with complete Freund's adjuvant on day 0.
Bone mineral density of the proximal tibia assessed by pQCT (day 36).
Assessment for hind paws of adjuvant arthritis rats treated with NC-2300 or vehicle.
Adjuvant arthritis in hind paw administered with NC-2300 or vehicle was evaluated.

In test [2] the test system is T cells stimulated with anti-CD3/CD28 antibodies. The test is described as follows: Cell proliferation assay of T cells stimulated with anti-CD3/CD28 antibodies. In kind it is cell-based, mouse. On the procedure: Cell proliferation was evaluated by using a Cell Proliferation ELISA kit according to the manufacturer's protocol.
Test [3] has the same test system. Put plainly: IL-2 production of T cells stimulated with anti-CD3/CD28 antibodies (ELISA). Type of test: cell-based, mouse. On the procedure:
(§1) Cells were cultured for 3-24 hours with or without PAMPs or plate-bound anti-CD3/CD28 antibodies in the presence or absence of NC-2300, and concentration of cytokines in the culture supernatant was determined by ELISA kits, according to the manufacturer's instructions.
In general terms: In an ELISA, binding on a coated surface is turned into a signal by an enzyme label.

In a further test the test system is BM-derived macrophages. Put plainly: Activation of BM-derived macrophages stimulated by PAMPs. Type of test: cell-based, mouse. On the procedure: (§2) Immature DCs were generated from mouse BM, as described in K. Inaba et al., J. Exp. Med. 176,1693 (1992). In brief, BM cells were cultured with 10 ng ml^−1 murine GM-CSF or 10 ng ml^−1 murine Flt3L in RPMI 1640 medium supplemented with 10% FBS for 6 days. Loosely adherent cells were harvested by gentle pipetting and were used as BM-derived DCs. To obtain BM-derived macrophages, BM cells were cultured with 10 ng ml^−1 M-CSF in α-MEM medium supplemented with 10% FBS for 2 days, and adherent cells were used as BM-derived macrophages. For the pathogen-associated molecular pattern (PAMP) stimulation, cells were plated at 5×10^5 cells ml^−1 in 24-well plates, and cultured with 10 ng ml^−1 Lipopolysaccharide (LPS), 30 μg ml^−1 Peptidoglycan Type I (PGN), or Endotoxin-free phosphorothioate-stabilized CpG oligodeoxynucleotides (CpG ODN).
as §1

The next test has as its target T1, cathepsin K (Mus musculus, UniProt P55097).
T1 construct: cell lysates were subjected to enzymatic assay; endogenous in cells; host or cells: bone marrow-derived dendritic cells (BM-DCs): cells pre-treated with NC-2300, then lysed
T1 sequence (P55097 115-329): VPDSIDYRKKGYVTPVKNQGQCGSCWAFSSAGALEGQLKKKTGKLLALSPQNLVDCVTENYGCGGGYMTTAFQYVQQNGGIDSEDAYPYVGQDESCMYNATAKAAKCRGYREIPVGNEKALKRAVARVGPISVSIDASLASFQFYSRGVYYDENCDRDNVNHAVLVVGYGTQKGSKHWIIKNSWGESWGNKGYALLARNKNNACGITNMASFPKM
Put plainly: Enzymatic activity of cathepsin K in BM-DCs (substrate Z-Gly-Pro-Arg-MCA). In kind it is cell-based. Conditions: BM-DCs pre-treated 24 hours, cell lysates. On the procedure:
BM-DCs were pre-treated with or without the cathepsin K inhibitor NC-2300 for 24 hours and washed extensively with cold phosphate-buffered saline (PBS), and cell lysates were subjected to enzymatic assay. Cathepsin K activity was measured with cathepsin K specific substrate, Z-Gly-Pro-Arg-MCA (GPR).

The test system of test [4] is TLR9. The test is described as follows: CpG-stimulated cytokine production by BM-DCs (ELISA). In kind it is cell-based, mouse. As to conditions: CpG (TLR9 ligand), 24 hours. On the procedure:
as §2, §1
BM-DCs were stimulated with peptidoglycan (PGN), lipopolysaccharide (LPS), and unmethylated CpG oligodeoxynucleotides (CpG) for 24 hours and the culture super-natants were subjected to ELISA. *P<0.05, ***P<0.001 (versus control).

Test [5] has as its system TLR9. Put plainly: Cytokine mRNA expression in CpG-treated BM-DCs (quantitative RT-PCR). Type of test: cell-based, mouse. On the procedure: (§3) Quantitative RT-PCR was performed as described in K. Sato et al., Nat Med 12, 1410 (2006). The following primers were used.
The level of mRNA expression was normalized with that of β-actin expression.
BM-DCs were generated by either GM-CSF or Flt3L. Total RNA was extracted 6 hours after CpG stimulation.

The subject of the next test is TLR3. Put plainly: Cytokine mRNA expression in poly(I:C)-treated DCs derived from mouse spleen. In kind it is cell-based. Conditions: poly(I:C) (TLR3 ligand)-treated mouse spleen DCs, total RNA 3 hours after stimulation. On the procedure: as §3
(§4) Spleens were excised from male mice of 8 to 10 weeks. Dendritic cells (DCs) were separated from the spleens using pan DC microbeads (Miltenyi Biotec, Bergisch Gladbach, Germany), according to the manufacturer's instructions.
(§5) Total RNA was extracted 3 hours after stimulation.

A further test deals with TLR7, 8. Put plainly: Cytokine mRNA expression in R837-treated DCs derived from mouse spleen. As to conditions: R837 (TLR7, 8 ligand)-treated mouse spleen DCs, total RNA 3 hours after stimulation. Type of test: cell-based. On the procedure:
as §3, §4, §5

Another test deals with BM-DCs. The test is described as follows: In vitro development of BM-DCs. Type of test: cell-based, mouse. On the procedure: as §2
The test system of test [6] is extracellular-signal regulated kinases 1/2 (ERK 1/2). Put plainly: ERK 1/2 phosphorylation in stimulated DCs (immunoblot). Type of test: cell-based, mouse. Conditions: CpG-induced. On the procedure: DCs were cultured in low serum medium (0.1% FBS) for 4 hours to reduce background and then stimulated with CpG ODN or LPS in the presence or absence of NC-2300. The stimulated cells were subjected to immunoblot analyses as described in K. Sato et al., Nat Med12, 1410 (2006), using Abs for ERK-1/2, phosphorylated ERK-1/2 and β-actin.

The test system of another test is CD40, CD80 and CD86. Put plainly: TLR9-mediated expression of cell surface molecules in DCs (flowcytometry). Type of test: cell-based, mouse. Conditions: stimulated 48 hours. On the procedure:
(§6) Before staining, cells were incubated with mouse BD Fc Block to minimize nonspecific staining. The cells were then stained with fluorophore-conjugated monoclonal Abs. The following fluorophore-conjugated mAbs were used; Allophycocyanin (APC)-conjugated anti-CD3e (145-2C11), fluorescein isothiocyanate (FITC)-conjugated anti-CD4 (RM4-5), CD11c (HL3), CD40 (3/23), CD80 (16-10Al), CD86 (GL1), I-A^d (AMS-32.1), and Phycoerythrin (PE)-conjugated anti-mouse IL-17 (TC11-18H10). For intracellular cytokine staining, cells were collected and left unstimulated or were stimulated for 5 hours with PMA (40 ng ml^−1) and ion-omycin (4 μg ml^−1) in the presence of GolgiPlug at the recommended concentration. Standard intracellular cytokine staining was performed as follows; cells were first stained extracellularly with APC-conjugated anti-CD3 and FITC-conjugated anti-CD4 mAbs, then were fixed and permeabilized with Cytofix/Cytoperm solution, and finally were stained intracellularly with PE-conjugated anti-IL-17 mAb. Flowcytometric analysis was performed by FACScan with CellQuest software or FACSCanto II with Diva software.
DCs were stimulated with CpG or LPS for 48 hours and analyzed by flowcytometry.

A further test deals with Th17 cells. The test is described as follows: Th17 cell induction by splenic DCs cocultured with CD4+ T cells (intracellular staining of IL-17). Type of test: cell-based, mouse. As to conditions: 3 days coculture. On the procedure: as §6
CD4-positive T cells and splenic DCs were isolated from the spleen using a magnetic sorter and anti-CD4 microbeads. These cells were stimulated with plate-bound anti-CD3 and anti-CD28 mAbs (1 μg ml^−1 each) for 3 days in the presence of 2 ng ml^−1 human TGF-β, 10 μg ml^−1 each of anti-IFN-γ and anti-IL-4 mAbs, with or without CpG ODN, LPS or PGN.
Cathepsin K inactivation results in defective Th17 polarization in response to CpG, but not LPS or PGN were measured. CD4^+T cells and DCs were sorted from the spleen, and cocultured in the presence of CpG, LPS, or PGN for 3 days. After the culture, percentages of CD3e^+CD4^+IL-17^+ cells were analyzed by flowcytometry.

Another test deals with cathepsin K−/− DCs. Put plainly: Cytokine production in WT or cathepsin K−/− DCs in response to LPS or CpG, with chloroquine. Type of test: cell-based, mouse. As to conditions: chloroquine added 1 hour before the stimulation; cytokines IL-12 and IL-6. On the procedure: as §1
Cytokine production in WT or cathepsin K^−/− DCs in response to LPS or CpG was measured. Chloroquine was added 1 hour before the stimulation to suppress endosomal acidification. N.D., not detected. *P<0.05, ***P<0.001 (versus WT).

Setting [7] is: arthritic rats, high dose treatment, day 35.
Where [8] appears, read: BM-DCs, total RNA 6 hours after CpG stimulation.

Regarding `NCCCC(O)(P(=O)(O)O)P(=O)(O)O` [alendronate, reference compound], the “bone erosion in the ankle (radiological analysis)” value in test [1] (rat adjuvant arthritis) was “did not efficiently suppress bone erosion”.

Regarding `CC(C)COC[C@H](CC(C)C)NC(=O)[C@H]1O[C@@H]1C(=O)[O-].[Na+]` [NC-2300, monosodium (2S,3S)-3-[[(1S)-1-isobutoxymethyl-3-methylbutyl]carbamoyl]oxirane-2-carboxylate], in test [1] (setting [7]), the “locomotion activity: arthritis-induced incapacitation of rearing behavior” value is reported as “significantly ameliorated the arthritis-induced incapacitation of rearing behavior” and the “locomotion activity: severity of the hind limb lameness” value is reported as “reduced the severity of the hind limb lameness”. Moreover, in test [1] (rat adjuvant arthritis), the “onset rate of arthritis” value was “without affecting the onset rate of arthritis” and the “bone erosion in the ankle (radiological analysis)” value is “markedly suppressed bone erosion”. The “paw swelling in the course of arthritis” value in test [1] (rat adjuvant arthritis, hind paws) is listed as “ameliorated paw swelling”. In [1] (rat adjuvant arthritis, administered after the onset of disease), the “inflammation when administered after the onset of disease” value is given as “ameliorated inflammation”. Moreover, the “periarticular osteoporosis in the proximal tibia (bone mineral density)” value in test [1] (rat adjuvant arthritis, pQCT day 36) is reported as “comparable inhibitory effect”. Further, in [2], the “proliferation of T cells” value is “no effect”. In [3], the “IL-2 production of T cells” value is on record as “no effect”. Also, the “activation of BM-derived macrophages” value in the test with BM-derived macrophages was “no significant effects”. Moreover, the “cathepsin K activity in DCs” value on cathepsin K is reported as “inhibited by NC-2300 in a dose-dependent manner”. Besides, in the test with TLR9 [4], the “production of IL-12 by DCs” value is reported as “significantly inhibited” and the “production of IL-23 by DCs” value is recorded as “significantly inhibited”. Further, in the test on TLR9 [5] (setting [8]), the “CpG-induced expression of IL-6 at the mRNA level” value is “downregulated”, the “CpG-induced expression of IL-12 at the mRNA level” value is on record as “downregulated” and the “CpG-induced expression of IL-23 at the mRNA level” value is “downregulated”. Besides, the “IFN production by Flt3L-induced DCs in response to CpG” value in the test on TLR9 [5] (Flt3L-induced DCs, CpG) is “suppressed”. The “cytokine mRNA expression (IFN-1)” value in the test with TLR3 is reported as “suppressed”. In addition, the “cytokine mRNA expression (IFN-1)” value with TLR7, 8 is “suppressed”. The “in vitro development of BM-DCs” value with BM-DCs is “no effects”. Moreover, the “phosphorylation of ERK 1/2 in DCs” value in test [6] is “Suppression”. Moreover, in the test with CD40, CD80 and CD86, the “expression of CD40 in DCs” value is reported as “reduced expression”, the “expression of CD80 in DCs” value is recorded as “reduced expression” and the “expression of CD86 in DCs” value was “reduced expression”. Moreover, the “ability of DCs to induce Th17 cells” value in the test with Th17 cells (DCs stimulated with CpG) is reported as “markedly inhibited”. Moreover, the “ability of DCs to induce Th17 cells” value in the test on Th17 cells (DCs stimulated with LPS) was “only when DCs were stimulated with CpG”. Also, the “ability of DCs to induce Th17 cells” value in the test with Th17 cells (DCs stimulated with PGN) is given as “only when DCs were stimulated with CpG”.

For `CCN(CC)CCCC(C)Nc1ccnc2cc(Cl)ccc12` (stereo not shown) [chloroquine], in the test on cathepsin K−/− DCs, the “cytokine induction in cathepsin K−/− DCs” value was “further suppressed”.

`CCOC(=O)[C@H]1O[C@@H]1C(=O)N[C@@H](CC(C)C)C(=O)NCCC(C)C` [E64d, reference compound]: the “cytokine mRNA expression (IFN-1)” value in the test on TLR3 was “suppressed”; with TLR7, 8 it was “suppressed”.

Source of the values: US20100331545A1, “REGULATOR FOR SIGNALING TOLL-LIKE RECEPTOR, WHICH COMPRISES CATHEPSIN INHIBITOR AS ACTIVE INGREDIENT” (NIPPON CHEMIPHAR CO., LTD., priority 2007, published 2010).
